{
  "source": "ChEMBL document CHEMBL5338818",
  "about": "“Discovery of the First Potent, Selective, and In Vivo Efficacious Polo-like Kinase 4 Proteolysis Targeting Chimera Degrader for the Treatment of TRIM37-Amplified Breast Cancer” (J Med Chem, 2023)",
  "key": {"[1]": {"assay": "Efflux ratio of apparent permeability across basolateral to apical side over apical to basolateral side in human Caco-2 cells", "format": "ADME, cell-based"}, "[2]": {"assay": "Metabolic stability in human liver microsomes assessed as intrinsic clearance at 100 uM incubated for 60 mins in presence of NADPH by LC-MS/MS analysis", "format": "ADME, Microsome", "details": "read-out: CLH"}, "[3]": {"assay": "Metabolic stability in rat liver microsomes assessed as half life at 100 uM incubated for 60 mins in presence of NADPH by LC-MS/MS analysis", "format": "ADME, Microsome"}, "[4]": {"target": "T1, Protein cereblon/Serine/threonine-protein kinase PLK4 (Homo sapiens, UniProt O00444+Q96SW2)", "T1 sequence (Q96SW2 whole entry, looked up, one chain of several)": "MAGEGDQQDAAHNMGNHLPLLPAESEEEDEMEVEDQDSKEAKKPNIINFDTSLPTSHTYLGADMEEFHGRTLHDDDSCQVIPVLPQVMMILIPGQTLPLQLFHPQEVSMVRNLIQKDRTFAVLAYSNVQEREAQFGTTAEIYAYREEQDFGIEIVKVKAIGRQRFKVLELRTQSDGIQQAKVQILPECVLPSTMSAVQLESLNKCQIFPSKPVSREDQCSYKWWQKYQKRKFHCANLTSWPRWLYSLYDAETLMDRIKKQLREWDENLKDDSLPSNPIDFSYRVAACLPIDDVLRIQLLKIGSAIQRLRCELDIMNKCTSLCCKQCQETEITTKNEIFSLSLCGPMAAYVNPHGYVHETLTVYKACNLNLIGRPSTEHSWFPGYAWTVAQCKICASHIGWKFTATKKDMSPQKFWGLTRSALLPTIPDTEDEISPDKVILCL", "assay": "Protac activity at CRBN/PLK4 in human MCF7 cells at 1 uM incubated for 48 hrs by Western blot analysis", "format": "cell-based"}, "[5]": {"assay": "Observed AUC infinity in ICR mouse at 2 mg/kg, iv measured upto 24 hrs by LC-M/MS analysis", "format": "ADME, organism-based", "parameters": "time < 24 hrs, dose 2 mg/kg, route iv", "details": "in vivo"}, "[6]": {"assay": "Stability in human plasma assessed as compound remaining at 100 uM after 30 mins by LC-MS/MS analysis (reference value: 100%)", "format": "ADME, cell-free", "details": "read-out: Stability"}, "CYP2C9": {"target": "CYP2C9 (Homo sapiens, UniProt P11712)", "sequence (P11712 whole entry)": "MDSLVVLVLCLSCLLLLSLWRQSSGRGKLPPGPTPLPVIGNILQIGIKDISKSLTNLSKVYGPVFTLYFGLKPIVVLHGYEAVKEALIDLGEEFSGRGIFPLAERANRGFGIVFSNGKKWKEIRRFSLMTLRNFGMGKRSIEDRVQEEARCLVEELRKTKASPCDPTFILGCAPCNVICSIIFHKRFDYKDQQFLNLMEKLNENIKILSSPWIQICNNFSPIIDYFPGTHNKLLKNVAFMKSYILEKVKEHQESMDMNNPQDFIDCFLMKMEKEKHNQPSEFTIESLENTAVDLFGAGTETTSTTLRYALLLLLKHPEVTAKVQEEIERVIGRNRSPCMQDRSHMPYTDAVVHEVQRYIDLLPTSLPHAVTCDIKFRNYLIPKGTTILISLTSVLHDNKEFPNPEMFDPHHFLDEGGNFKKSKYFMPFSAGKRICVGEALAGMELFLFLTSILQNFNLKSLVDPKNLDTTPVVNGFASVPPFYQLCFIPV", "assay": "Inhibition of CYP2C9 in human liver microsomes at 10 uM using sulfaphenazole as substrate preincubated for 10 mins followed by NADPH regenerating system addition and measured after 15 mins by LC-MS/MS analysis relative to control", "format": "ADME, Microsome", "details": "time 25 min"}, "[7]": {"assay": "Cmax in ICR mouse at 20 mg/kg, ip measured upto 24 hrs by LC-M/MS analysis", "format": "ADME, organism-based", "parameters": "dose 20 mg/kg, time < 24 hrs, route ip", "details": "in vivo"}, "[8]": {"target": "T2, Serine/threonine-protein kinase PLK4 (Homo sapiens) (UniProt O00444)", "T2 sequence (whole entry)": "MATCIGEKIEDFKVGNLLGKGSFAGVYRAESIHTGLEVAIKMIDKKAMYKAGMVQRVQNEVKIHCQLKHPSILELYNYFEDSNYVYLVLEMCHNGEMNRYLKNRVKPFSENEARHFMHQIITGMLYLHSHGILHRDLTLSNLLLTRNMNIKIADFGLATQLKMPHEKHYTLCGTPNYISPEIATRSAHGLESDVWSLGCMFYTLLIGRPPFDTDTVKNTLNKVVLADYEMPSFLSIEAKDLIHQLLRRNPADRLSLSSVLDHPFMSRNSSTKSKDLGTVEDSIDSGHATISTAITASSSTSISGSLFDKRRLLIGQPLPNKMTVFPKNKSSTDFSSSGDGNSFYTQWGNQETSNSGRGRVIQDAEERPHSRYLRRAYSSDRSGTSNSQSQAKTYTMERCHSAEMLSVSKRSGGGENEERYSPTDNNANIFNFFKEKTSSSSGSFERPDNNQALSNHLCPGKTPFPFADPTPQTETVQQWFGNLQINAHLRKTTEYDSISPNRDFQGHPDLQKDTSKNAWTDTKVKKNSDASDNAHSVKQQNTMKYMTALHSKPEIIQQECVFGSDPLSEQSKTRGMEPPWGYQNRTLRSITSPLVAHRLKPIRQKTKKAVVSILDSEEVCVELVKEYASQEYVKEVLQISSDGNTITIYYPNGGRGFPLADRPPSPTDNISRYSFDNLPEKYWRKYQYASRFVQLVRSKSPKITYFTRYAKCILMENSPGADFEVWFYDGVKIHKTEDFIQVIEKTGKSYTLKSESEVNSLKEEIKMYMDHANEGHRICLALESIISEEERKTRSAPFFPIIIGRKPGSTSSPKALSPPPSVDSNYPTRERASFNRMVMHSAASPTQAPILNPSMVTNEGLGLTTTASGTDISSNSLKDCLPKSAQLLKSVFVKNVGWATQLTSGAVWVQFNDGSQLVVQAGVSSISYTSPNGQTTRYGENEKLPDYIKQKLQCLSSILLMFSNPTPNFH", "assay": "Inhibition of PLK4 in human MCF7 cells assessed as reduction in FBXW5 inactivation by Western blot analysis", "format": "cell-based", "details": "dose 1-1000 nM"}, "[9]": {"assay": "Metabolic stability in mouse liver microsomes assessed as compound remaining at 100 uM incubated for 60 mins by LC-MS/MS analysis", "format": "ADME, Microsome", "details": "read-out: Stability"}, "[10]": {"target": "T1, Protein cereblon/Serine/threonine-protein kinase PLK4", "assay": "Protac activity at CRBN/PLK4 in human MCF7 cells at 0.1 uM incubated for 48 hrs by Western blot analysis", "format": "cell-based"}, "[11]": {"target": "T1, Protein cereblon/Serine/threonine-protein kinase PLK4", "assay": "Protac activity at CRBN/PLK4 in human MCF7 cells at 1 uM in presence of MG132 by Western blot analysis", "format": "cell-based"}, "[12]": {"assay": "Metabolic stability in rat liver microsomes assessed as intrinsic clearance at 100 uM incubated for 60 mins in presence of NADPH by LC-MS/MS analysis", "format": "ADME, Microsome", "details": "read-out: CLH"}, "MCF7 [13]": {"test_system": "MCF7", "assay": "Antitumor activity against human MCF7 cells xenografted in nu/nu mouse assessed as reduction in Ki-67 at 20 mg/kg,ip administered once every other day for 21 days by immunohistochemical analysis", "format": "functional, organism-based", "details": "time 21.0 day"}, "[14]": {"target": "T2, Serine/threonine-protein kinase PLK4 (Homo sapiens)", "assay": "Inhibition of PLK4 in human MCF7 cells assessed as increase in SAS-6 degradation by Western blot analysis", "format": "cell-based", "details": "dose 1-1000 nM"}, "MCF7 [15]": {"test_system": "MCF7", "assay": "Antitumor activity against human MCF7 cells xenografted in nu/nu mouse assessed as induction of apoptosis at 20 mg/kg, ip measured once every other day for 21 days by TUNEL assay", "format": "functional, organism-based", "details": "time 21.0 day"}},
  "note": "Activity calls are given as the source filed them. The rule behind the calls is not given here.",
  "data": [
    {"compound": "Cc1cc(Nc2nc(NCc3ccc(F)cc3F)nc3c2cnn3C2CCN(C(=O)C3CCN(c4ccc5c(c4)C(=O)N(C4CCC(=O)NC4=O)C5=O)CC3)CC2)n[nH]1", "note": "(stereo unspecified)", "values": [
      {"measurement": "efflux ratio", "setting": "[1]", "value": 2.02},
      {"measurement": "microsomal CLint at 100 µM", "setting": "[2]", "value": 21.7, "unit": "µL/min/mg"},
      {"measurement": "half-life at 100 µM", "setting": "[3]", "value": 1.11, "unit": "h"},
      {"measurement": "Activity", "setting": "[4]", "value": 73.4, "unit": "%"},
      {"measurement": "AUC(0-inf)", "setting": "[5]", "value": 956, "unit": "ng·h/mL"},
      {"measurement": "remaining at 0.5 h, 100 µM", "setting": "[6]", "value": 96.6, "unit": "%"},
      {"measurement": "inhibition at 0.25 h, 10 µM", "setting": "CYP2C9", "value": 32.5, "unit": "%"},
      {"measurement": "Cmax", "setting": "[7]", "value": 4570, "unit": "ng/mL"},
      {"measurement": "inhibition", "setting": "[8]", "value": "Dose-Dependent Effect"},
      {"measurement": "remaining at 1 h, 100 µM", "setting": "[9]", "value": 80.7, "unit": "%"},
      {"measurement": "Activity", "setting": "[10]", "value": 68.3, "unit": "%"},
      {"measurement": "Activity", "setting": "[11]", "value": "Active"},
      {"measurement": "microsomal CLint at 100 µM", "setting": "[12]", "value": 20.9, "unit": "µL/min/mg"},
      {"measurement": "inhibition", "setting": "MCF7 [13]", "value": "Active"},
      {"measurement": "inhibition", "setting": "[14]", "value": "Dose-Dependent Effect"},
      {"measurement": "inhibition", "setting": "MCF7 [15]", "value": "Active"}
    ]}
  ]
}
